From article PMC6678576, “Spectroscopic Characterisation of the Naphthalene Dioxygenase from Rhodococcus sp. Strain NCIMB12038” (International Journal of Molecular Sciences, 2019)

Target: T1, naphthalene 1,2-dioxygenase (NDO; ISPNAR) from Rhodococcus sp. strain NCIMB12038 (Rhodococcus sp. NCIMB 12038, UniProt Q9X3R9)
T1 construct: gene narAa; native oxygenase component purified from naphthalene-grown Rhodococcus cells; alpha3beta3; Rieske [2Fe-2S] and mononuclear iron; with Naphthalene 1,2-dioxygenase small (beta) subunit
T1 sequence (Q9X3R9 1-470): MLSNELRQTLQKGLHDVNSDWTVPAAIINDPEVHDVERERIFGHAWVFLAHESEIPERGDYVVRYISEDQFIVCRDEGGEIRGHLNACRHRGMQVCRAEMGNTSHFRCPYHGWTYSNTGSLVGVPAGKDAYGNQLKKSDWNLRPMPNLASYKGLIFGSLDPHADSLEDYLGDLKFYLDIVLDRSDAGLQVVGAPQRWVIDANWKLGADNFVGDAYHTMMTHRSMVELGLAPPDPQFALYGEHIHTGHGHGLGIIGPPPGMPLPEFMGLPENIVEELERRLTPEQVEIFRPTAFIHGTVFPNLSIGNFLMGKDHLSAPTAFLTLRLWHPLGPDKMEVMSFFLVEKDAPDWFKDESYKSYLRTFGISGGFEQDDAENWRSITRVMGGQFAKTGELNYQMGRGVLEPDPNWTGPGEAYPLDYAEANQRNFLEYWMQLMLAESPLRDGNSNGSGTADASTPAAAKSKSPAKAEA
T1 sequence (Q7BSK6 1-172 partner): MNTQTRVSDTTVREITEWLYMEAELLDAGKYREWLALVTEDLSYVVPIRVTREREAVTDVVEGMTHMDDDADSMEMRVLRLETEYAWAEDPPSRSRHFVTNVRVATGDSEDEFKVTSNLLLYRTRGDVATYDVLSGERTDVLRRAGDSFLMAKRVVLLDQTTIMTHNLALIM
Assay: EPR ([…] K) and UV-Vis of single turnover and peroxide shunt
Assay type: binding
Conditions: dithionite-reduced NDO with O2-saturated naphthalene, or H2O2 peroxide shunt; no reductase or ferredoxin; 50 mM Tris-HCl pH 7.8, 10% ethanol, 10% glycerol, 0.5 mM DTT

## c1ccc2ccccc2c1 [naphthalene]
  EPR (20 K) and UV-Vis of single turnover and peroxide shunt: NDO, with reduced Rieske and mononuclear iron centres, is able to react with naphthalene
